Consider 1 compound from patent US6121512A, “Cytochrome P-450 constructs and method of producing herbicide-resistant transgenic plants” (North Carolina State University, priority 1997, dated 2000).

Data set [1] addresses T1, soybean CYP71A10 (Glycine max, UniProt O48918).
T1 construct: microsomes of yeast W(R) overexpressing endogenous P450 reductase
T1 sequence (O48918 1-513): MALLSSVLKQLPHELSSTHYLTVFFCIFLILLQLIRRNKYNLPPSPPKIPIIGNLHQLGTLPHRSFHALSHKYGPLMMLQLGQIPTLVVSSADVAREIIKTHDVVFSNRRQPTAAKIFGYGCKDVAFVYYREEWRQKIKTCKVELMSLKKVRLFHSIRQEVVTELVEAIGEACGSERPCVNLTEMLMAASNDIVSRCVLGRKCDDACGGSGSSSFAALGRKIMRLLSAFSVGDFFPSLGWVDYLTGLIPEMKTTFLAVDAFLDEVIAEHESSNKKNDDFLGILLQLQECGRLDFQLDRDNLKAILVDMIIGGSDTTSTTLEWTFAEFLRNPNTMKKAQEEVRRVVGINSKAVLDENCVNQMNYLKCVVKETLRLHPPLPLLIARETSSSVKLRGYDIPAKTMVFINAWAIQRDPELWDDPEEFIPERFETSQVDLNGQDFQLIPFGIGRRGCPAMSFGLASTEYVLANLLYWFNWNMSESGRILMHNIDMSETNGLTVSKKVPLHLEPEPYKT
T1 sequence (P16603 1-691 partner): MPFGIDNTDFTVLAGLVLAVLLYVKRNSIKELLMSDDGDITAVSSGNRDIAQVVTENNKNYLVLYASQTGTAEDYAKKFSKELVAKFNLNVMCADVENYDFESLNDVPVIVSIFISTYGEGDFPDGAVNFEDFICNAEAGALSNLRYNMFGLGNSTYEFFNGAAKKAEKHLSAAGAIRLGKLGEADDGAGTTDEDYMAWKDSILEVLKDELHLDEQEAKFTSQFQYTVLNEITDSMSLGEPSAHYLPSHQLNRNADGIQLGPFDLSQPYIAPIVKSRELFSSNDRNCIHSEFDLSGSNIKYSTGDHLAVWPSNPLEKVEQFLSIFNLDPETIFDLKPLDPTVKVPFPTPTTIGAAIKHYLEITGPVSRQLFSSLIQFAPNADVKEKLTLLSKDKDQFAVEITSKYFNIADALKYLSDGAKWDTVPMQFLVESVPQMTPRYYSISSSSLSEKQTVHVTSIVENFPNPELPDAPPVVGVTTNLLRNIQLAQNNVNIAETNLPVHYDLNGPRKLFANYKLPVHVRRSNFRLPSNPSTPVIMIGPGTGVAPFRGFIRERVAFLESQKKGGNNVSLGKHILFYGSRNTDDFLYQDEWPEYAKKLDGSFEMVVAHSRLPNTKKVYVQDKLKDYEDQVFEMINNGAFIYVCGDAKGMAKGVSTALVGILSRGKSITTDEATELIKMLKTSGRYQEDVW
Briefly: In vitro herbicide metabolism assay and enzyme kinetics, microsomes of yeast expressing CYP71A10. It is filed as biochemical. On the procedure:
Yeast transformation was performed as described by Geitz et al., Nucleic Acids Research 20:1425 (1992). Media composition, culturing conditions, galactose induction, and microsomal preparations were conducted according to Pompon et al., Methods Enzymol. 272:51-64 (1995), using a culture volume of 250 ml. Microsomal protein was quantified spectrophotometrically using the method of Waddell, J. Lab. Clin. Med. 48:311-314 (1956), using bovine albumin as a standard. Dithionite-reduced, carbon monoxide difference spectra was obtained as previously outlined (Estabrook and Werringloer, Methods Ennzmol. 52:212-220 (1978)) using a Shimadzu Recording Spectrophotometer UV-240 (Shimadzu, Kyoto, Japan). P-450 protein concentrations of yeast microsomes were calculated using a millimolar extinction coefficient of 91 (Omura and Sato, J. Biol. Chem., 239:2370-2378 (1964)).
Yeast microsomes enriched for a discrete soybean P-450 isozyme were assayed for their capacity to metabolize the ten herbicides and one insecticide listed in Table 3. The reaction mixtures contained 10,000 DPM (100-200 ng) radiolabeled substrate, 0.75 mM NAPDH, 2.5 mg/ml microsomal protein. Total reaction volumes were adjusted to 150 μl with 50 mM phosphate buffer (pH 7.1). The mixtures were incubated under light for 45 minutes at 27° C., arrested with 50 μl acetone and centriftiged at 14 000×g for 2 minutes. […] Radiolabeled bentazon and imazaquin-containing samples were spotted onto 200 micron Whatman LKC18F silica gel reversed-phase plates. All plates were developed in a benzene/acetone 2:1 (v/v) solvent system with the exception of prosulfaron, developed in toluene/acetone/acetic acid, 75:20:5 (v/v/v), and bentazon and imazaquin, developed in methanol/75 mM sodium acetate 40:60 (v/v). The developed plates were scanned with a Bioscan System 400 imaging scanner (Bioscan, Washington, D.C.), and the production of metabolites was determined based on the chromatographic profiles. For microsomes containing the expressed CYP71A10 enzyme, control experiments were also conducted to measure the NADPH-dependency, and the inhibitory effects of CO. CO treatment of the sample was achieved by gentle bubbling of the gas through the reaction mixture for 2 minutes immediately before the assay was initiated by the addition of NADPH.
Substrate conversion was quantified by a combination of TLC analysis and scintillation spectrometry. The location of the metabolic products on the TLC plates was identified using an imaging scanner, the bands were scraped and analyzed by scintillation spectrometry. The amount of metabolite produced was calculated based on specific activity and scintillation counts. Each assay was repeated at least twice. Km and Vmax values were estimated using nonlinear regression analysis.

The subject of data set [2] is excised leaves of transgenic tobacco plant 25/2 progeny (CYP71A10-transformed). Description: In vivo herbicide metabolism assay, excised leaves of CYP71A10-transformed tobacco. The note with it: after 14 hours; 1.2 nmol herbicide; standard error in parentheses; four 25/2 plants. Set-up: species or system Nicotiana tabacum cv SR1. As for the experimental part:
Seeds from primary transgenic tobacco plants transformed with CYP71A10 and control plants transformed with the pBI121 vector were grown in Petri dishes containing MS salts and 100 μg/ml kanamycin. At five weeks post-seeding, kanamycin-resistant plantlets were transplanted into pots containing soil and grown an additional two weeks. Single leaves of approximately 10 cm^2 in size were excised and their petioles inserted into 100 μl of H2 O containing radiolabeled herbicide. The leaves were placed in a growth chamber maintaining a temperature of 27° C. and incubated until the entire volume of the herbicide solution was drawn up by the transpirational stream of the leaves (about 3 hrs). The leaves were subsequently transferred into an Eppendorf tube containing distilled water and further incubated for a total of 14 hours.
[^14 C]-labeled herbicide was extracted from the leaves by grinding for 5 minutes in 250 μl methanol with a plastic pellet pestle driven by an electric drill. After centrifugation for 3 minutes at 14,000 g, 75μl of the supernatant was spotted on a Whatman K6F silica plate and developed in a solvent system containing chloroforn/ethanol/acetic acid 135:10:15 (v/v/v). The separated herbicide derivatives were visualized using an imaging scanner. Substrate conversion was quantified based on the amount of herbicide absorbed, and the ratios of the parent compound and the produced metabolites determined from the TLC profiles.

As to `Cc1ccc(NC(=O)N(C)C)cc1Cl` [Chlortoluron, chlortoluron], in data set [1] (45 minutes at 27° C., 0.75 mM NADPH, 2.5 mg/ml microsomal protein), the “metabolites formed from the radiolabeled herbicide (TLC)” value was “two (a major and a minor) metabolites”. Besides, the Turnover in data set [1] (yeast microsomes containing CYP71A10, standard error in parentheses) is given as 0.7 (0.05) min^-1. In data set [2], the “% of herbicide metabolized, CYP71A10-transformed” value is recorded as 85 (8.1) %.
